Results reported in patent US8198273B2, “Compounds and methods for kinase modulation, and indications therefor” (Plexxikon Inc., priority 2009, dated 2012).
pIC50: −log10 of the molar value.

Key:
A-Raf = molecular target: T1, A-Raf (Homo sapiens, UniProt P10398); assay: A-Raf biochemical kinase inhibition (AlphaScreen, biotin-MEK1 substrate); conditions: 100 μM ATP
T1 sequence (P10398 1-606): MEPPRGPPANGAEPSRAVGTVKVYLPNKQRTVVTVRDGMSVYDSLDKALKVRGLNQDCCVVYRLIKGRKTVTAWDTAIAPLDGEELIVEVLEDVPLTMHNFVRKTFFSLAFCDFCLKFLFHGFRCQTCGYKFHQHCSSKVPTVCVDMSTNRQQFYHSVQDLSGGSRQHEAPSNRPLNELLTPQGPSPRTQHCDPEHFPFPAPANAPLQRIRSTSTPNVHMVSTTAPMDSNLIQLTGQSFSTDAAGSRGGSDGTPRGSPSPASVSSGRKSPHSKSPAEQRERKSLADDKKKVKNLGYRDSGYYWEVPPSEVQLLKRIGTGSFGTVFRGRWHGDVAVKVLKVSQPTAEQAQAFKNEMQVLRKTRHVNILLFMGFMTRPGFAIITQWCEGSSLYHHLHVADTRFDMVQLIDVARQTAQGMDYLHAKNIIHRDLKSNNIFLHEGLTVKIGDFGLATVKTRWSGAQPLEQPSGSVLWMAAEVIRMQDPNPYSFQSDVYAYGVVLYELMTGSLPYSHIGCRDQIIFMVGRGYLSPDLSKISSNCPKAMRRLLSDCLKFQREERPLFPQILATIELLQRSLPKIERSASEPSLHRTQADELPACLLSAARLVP
Procedure: Compounds to be tested are diluted in dimethyl sulfoxide to a concentration of 0.1 mM. These are serially diluted 15 μL into 30 μL of dimethyl sulfoxide seven times in 96 well plates for a total of 8 dilution points, and for each dilution point 1 μL is added to a well of an assay plate. […] The reaction is started with addition of 10 μL of 200 μM ATP (i.e. final 100 μM ATP). […] The plates are incubated for 3 hours at room temperature and read on Envision reader (Perkin Elmer). […] The signal vs. compound concentration is used to determine the IC50.

[1] = test system: A375 melanoma cells (B-Raf V600E); assay: A375 cell growth inhibition (ATPlite); assay type: cell-based; conditions: Homo sapiens, A-375, 72 h; A375, 3 days incubation
Procedure, shortened: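 Cells plated overnight, then exposed 3 days at 37° C to 8-point 1:3 compound dilutions topping at 10 μM final. Viability read as ATPlite luminescence, proportional to cell number; IC50 from luminescence versus concentration.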

CYP3A4(BQ) = CYP3A4(BQ) (Homo sapiens, UniProt P08684); assay: CYP3A4(BQ) inhibition (fluorescent substrate); assay type: in vitro ADME; conditions: read-out: Cyp IC50 3A4(BQ)
Sequence of CYP3A4(BQ) (P08684 whole entry): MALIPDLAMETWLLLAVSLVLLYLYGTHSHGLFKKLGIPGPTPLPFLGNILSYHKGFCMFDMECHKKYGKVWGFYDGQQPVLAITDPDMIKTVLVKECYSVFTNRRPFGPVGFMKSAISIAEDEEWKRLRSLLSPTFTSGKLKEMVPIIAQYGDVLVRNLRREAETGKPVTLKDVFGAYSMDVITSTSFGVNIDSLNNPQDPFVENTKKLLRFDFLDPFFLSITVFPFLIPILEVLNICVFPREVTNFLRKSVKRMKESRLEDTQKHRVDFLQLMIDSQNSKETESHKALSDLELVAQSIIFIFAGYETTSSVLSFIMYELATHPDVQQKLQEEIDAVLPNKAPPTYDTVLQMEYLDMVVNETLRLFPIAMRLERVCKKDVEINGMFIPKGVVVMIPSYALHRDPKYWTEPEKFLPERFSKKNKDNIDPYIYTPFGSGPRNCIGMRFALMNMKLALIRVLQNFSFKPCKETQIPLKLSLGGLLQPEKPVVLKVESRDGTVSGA
Procedure, shortened: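 Inhibition was followed as loss of fluorescent metabolite from a known substrate, with compound in co-factor mix as a 10-point 1:1 serial dilution (100 mM DMSO stock).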

Compound | pIC50 (A-Raf) | pIC50 [1] | pIC50 (CYP3A4(BQ))
Cc1cnc2[nH]cc(C(=O)c3c(F)ccc(NS(=O)(=O)c4cccnc4)c3F)c2c1 [P-2069, Pyridine-3-sulfonic acid [2,4-difluoro-3-(5-methyl-1H-pyrrolo[2,3-b]pyridine-3-carbonyl)-phenyl]-amide] | > 7.00 | > 5.30 | > 5.30
Cc1cnc2[nH]cc(C(=O)c3c(F)ccc(NS(=O)(=O)c4ccccc4F)c3F)c2c1 [P-2014, N-[2,4-Difluoro-3-(5-methyl-1H-pyrrolo[2,3-b]pyridine-3-carbonyl)-phenyl]-2-fluoro-benzenesulfonamide] | > 8.00 | > 6.00 | < 5.00
COc1ccnc2[nH]cc(C(=O)c3c(F)ccc(NS(=O)(=O)c4cc(F)ccc4F)c3F)c12 [P-2022, N-[2,4-Difluoro-3-(4-methoxy-1H-pyrrolo[2,3-b]pyridine-3-carbonyl)-phenyl]-2,5-difluoro-benzenesulfonamide] | > 7.00 | > 5.30 | –
CCCS(=O)(=O)Nc1ccc(F)c(C(=O)c2c[nH]c3ncc(-c4ccc(S(N)(=O)=O)cc4)cc23)c1F [P-2194, 4-{3-[2,6-Difluoro-3-(propane-1-sulfonylamino)-benzoyl]-1H-pyrrolo[2,3-b]pyridin-5-yl}-benzenesulfonamide] | – | > 5.30 | < 5.00
COc1ccnc2[nH]cc(C(=O)c3c(F)ccc(NS(=O)(=O)c4cccc(F)c4)c3F)c12 [P-2023, N-[2,4-Difluoro-3-(4-methoxy-1H-pyrrolo[2,3-b]pyridine-3-carbonyl)-phenyl]-3-fluoro-benzenesulfonamide] | – | > 6.00 | > 5.30
CCCS(=O)(=O)Nc1ccc(F)c(C(=O)c2c[nH]c3ncc(-c4cnc(SC)nc4)cc23)c1F [P-2189, Propane-1-sulfonic acid {2,4-difluoro-3-[5-(2-methylsulfanyl-pyrimidin-5-yl)-1H-pyrrolo[2,3-b]pyridine-3-carbonyl]-phenyl}-amide] | – | > 6.00 | > 5.30
CCCS(=O)(=O)Nc1ccc(F)c(C(=O)c2c[nH]c3ncc(-c4ccc(NC(C)=O)nc4)cc23)c1F [P-2193, N-(5-{3-[2,6-Difluoro-3-(propane-1-sulfonylamino)-benzoyl]-1H-pyrrolo[2,3-b]pyridin-5-yl}-pyridin-2-yl)-acetamide] | – | > 6.00 | < 5.00
CCCS(=O)(=O)Nc1ccc(F)c(C(=O)c2c[nH]c3ncc(-c4ccc(S(=O)(=O)NC)cc4)cc23)c1F [P-2167, 4-{3-[2,6-Difluoro-3-(propane-1-sulfonylamino)-benzoyl]-1H-pyrrolo[2,3-b]pyridin-5-yl}-N-methyl-benzenesulfonamide] | – | > 6.00 | 5.00 to 5.30
CCCS(=O)(=O)Nc1ccc(F)c(C(=O)c2c[nH]c3ncc(-c4cnn(CCN5CCOCC5)c4)cc23)c1F [P-2177, Propane-1-sulfonic acid (2,4-difluoro-3-{5-[1-(2-morpholin-4-yl-ethyl)-1H-pyrazol-4-yl]-1H-pyrrolo[2,3-b]pyridine-3-carbonyl}-phenyl)-amide] | – | > 6.00 | < 5.00
CCCS(=O)(=O)Nc1ccc(F)c(C(=O)c2c[nH]c3ncc(-c4cnn(Cc5ccccc5)c4)cc23)c1F [P-2190, Propane-1-sulfonic acid {3-[5-(1-benzyl-1H-pyrazol-4-yl)-1H-pyrrolo[2,3-b]pyridine-3-carbonyl]-2,4-difluoro-phenyl}-amide] | – | > 6.00 | < 5.00
CCCS(=O)(=O)Nc1ccc(F)c(C(=O)c2c[nH]c3ncc(-c4ccc(C(=O)NC5CC5)nc4)cc23)c1F [P-2181, 5-{3-[2,6-Difluoro-3-(propane-1-sulfonylamino)-benzoyl]-1H-pyrrolo[2,3-b]pyridin-5-yl}-pyridine-2-carboxylic acid cyclopropylamide] | – | > 6.00 | < 5.00
CCCS(=O)(=O)Nc1ccc(F)c(C(=O)c2c[nH]c3ncc(-c4ccc(SC)nc4)cc23)c1F [P-2187, Propane-1-sulfonic acid {2,4-difluoro-3-[5-(6-methylsulfanyl-pyridin-3-yl)-1H-pyrrolo[2,3-b]pyridine-3-carbonyl]-phenyl}-amide] | – | > 6.00 | < 5.00
N#Cc1cnc2[nH]cc(C(=O)c3cccc(NS(=O)(=O)c4c(F)cccc4F)c3F)c2c1 [P-2054, N-[3-(5-Cyano-1H-pyrrolo[2,3-b]pyridine-3-carbonyl)-2-fluoro-phenyl]-2,6-difluoro-benzenesulfonamide] | – | > 5.30 | < 5.00
CCCS(=O)(=O)Nc1ccc(F)c(C(=O)c2c[nH]c3ncc(-c4cn[nH]c4)cc23)c1F [P-2174, Propane-1-sulfonic acid {2,4-difluoro-3-[5-(1H-pyrazol-4-yl)-1H-pyrrolo[2,3-b]pyridine-3-carbonyl]-phenyl}-amide] | – | > 6.00 | > 5.30
CCCS(=O)(=O)Nc1ccc(F)c(C(=O)c2c[nH]c3ncc(-c4ccc(F)nc4)cc23)c1F [P-2155, Propane-1-sulfonic acid {2,4-difluoro-3-[5-(6-fluoro-pyridin-3-yl)-1H-pyrrolo[2,3-b]pyridine-3-carbonyl]-phenyl}-amide] | – | > 6.00 | < 5.00
CCCS(=O)(=O)Nc1ccc(F)c(C(=O)c2c[nH]c3ncc(-c4ccc(S(=O)(=O)CC)cc4)cc23)c1F [P-2218, Propane-1-sulfonic acid {3-[5-(4-ethanesulfonyl-phenyl)-1H-pyrrolo[2,3-b]pyridine-3-carbonyl]-2,4-difluoro-phenyl}-amide] | – | > 7.00 | < 5.00
CCCS(=O)(=O)Nc1ccc(F)c(C(=O)c2c[nH]c3ncc(-c4ccc(C#CCN(CC)CC)nc4)cc23)c1F [P-2222, Propane-1-sulfonic acid (3-{5-[6-(3-diethylamino-prop-1-ynyl)-pyridin-3-yl]-1H-pyrrolo[2,3-b]pyridine-3-carbonyl}-2,4-difluoro-phenyl)-amide] | – | > 7.00 | 5.00 to 5.30
CCCS(=O)(=O)Nc1ccc(F)c(C(=O)c2c[nH]c3ncc(-c4ccnc(F)c4)cc23)c1F [P-2192, Propane-1-sulfonic acid {2,4-difluoro-3-[5-(2-fluoro-pyridin-4-yl)-1H-pyrrolo[2,3-b]pyridine-3-carbonyl]-phenyl}-amide] | – | > 6.00 | < 5.00
O=C(c1c(F)ccc(NS(=O)(=O)c2c(F)cccc2F)c1F)c1c[nH]c2ncc(Cl)cc12 [P-2003, N-[3-(5-Chloro-1H-pyrrolo[2,3-b]pyridine-3-carbonyl)-2,4-difluoro-phenyl]-2,6-difluoro-benzenesulfonamide] | – | > 6.00 | < 5.00
CCCS(=O)(=O)Nc1ccc(F)c(C(=O)c2c[nH]c3ncc(-c4ccc(OCCCN(C)C)nc4)cc23)c1F [P-2178, Propane-1-sulfonic acid (3-{5-[6-(3-dimethylamino-propoxy)-pyridin-3-yl]-1H-pyrrolo[2,3-b]pyridine-3-carbonyl}-2,4-difluoro-phenyl)-amide] | – | > 7.00 | > 5.30
Cc1cnc2[nH]cc(C(=O)c3c(F)ccc(NS(=O)(=O)c4c(F)cccc4F)c3F)c2c1 [P-2024, N-[2,4-Difluoro-3-(5-methyl-1H-pyrrolo[2,3-b]pyridine-3-carbonyl)-phenyl]-2,6-difluoro-benzenesulfonamide] | – | > 5.30 | < 5.00
CCCS(=O)(=O)Nc1ccc(F)c(C(=O)c2c[nH]c3ncc(-c4ccc(C(=O)NC)nc4)cc23)c1F [P-2180, 5-{3-[2,6-Difluoro-3-(propane-1-sulfonylamino)-benzoyl]-1H-pyrrolo[2,3-b]pyridin-5-yl}-pyridine-2-carboxylic acid methylamide] | – | > 6.00 | < 5.00
CCCS(=O)(=O)Nc1ccc(F)c(C(=O)c2c[nH]c3ncc(-c4cncnc4)cc23)c1F [P-2162, Propane-1-sulfonic acid [2,4-difluoro-3-(5-pyrimidin-5-yl-1H-pyrrolo[2,3-b]pyridine-3-carbonyl)-phenyl]-amide] | – | > 6.00 | > 5.30
N#Cc1cnc2[nH]cc(C(=O)c3cccc(NS(=O)(=O)c4cc(F)ccc4F)c3F)c2c1 [P-2052, N-[3-(5-Cyano-1H-pyrrolo[2,3-b]pyridine-3-carbonyl)-2-fluoro-phenyl]-2,5-difluoro-benzenesulfonamide] | – | > 6.00 | < 5.00
CCCS(=O)(=O)Nc1ccc(F)c(C(=O)c2c[nH]c3ncc(-c4ccc(C)nc4)cc23)c1F [P-2213, Propane-1-sulfonic acid {2,4-difluoro-3-[5-(6-methyl-pyridin-3-yl)-1H-pyrrolo[2,3-b]pyridine-3-carbonyl]-phenyl}-amide] | – | > 6.00 | < 5.00
